According to ChEMBL document CHEMBL1136002 (J Med Chem, 2002):

Columns and labels:
[1] = molecular target: T1, Sodium-dependent serotonin transporter (Homo sapiens, UniProt P31645); assay: Ratio of Ki value towards Serotonin transporter (SERT) to that of Dopamine transporter (DAT)
Target sequence in this assay (P31645 whole entry, looked up): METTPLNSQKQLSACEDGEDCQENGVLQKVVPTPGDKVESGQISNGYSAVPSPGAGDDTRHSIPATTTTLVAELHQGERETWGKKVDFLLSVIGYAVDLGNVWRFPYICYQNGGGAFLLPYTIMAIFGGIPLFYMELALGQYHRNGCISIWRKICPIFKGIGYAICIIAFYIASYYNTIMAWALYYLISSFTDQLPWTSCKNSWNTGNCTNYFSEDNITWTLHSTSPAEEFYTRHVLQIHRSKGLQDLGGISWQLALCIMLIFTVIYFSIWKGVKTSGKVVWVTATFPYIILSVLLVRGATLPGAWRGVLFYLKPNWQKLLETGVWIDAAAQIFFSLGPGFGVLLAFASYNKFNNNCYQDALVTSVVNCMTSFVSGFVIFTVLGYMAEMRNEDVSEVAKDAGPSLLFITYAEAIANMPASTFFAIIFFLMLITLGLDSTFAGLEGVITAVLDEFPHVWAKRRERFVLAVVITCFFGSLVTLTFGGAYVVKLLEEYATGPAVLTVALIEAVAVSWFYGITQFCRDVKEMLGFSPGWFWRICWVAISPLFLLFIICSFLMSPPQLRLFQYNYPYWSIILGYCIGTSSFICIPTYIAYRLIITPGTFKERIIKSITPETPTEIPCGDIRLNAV

[2] = molecular target: T1, Sodium-dependent serotonin transporter; assay: Binding affinity for serotonin transporter (SERT) using [125I]RTI-55
Target sequence in this assay (P31645 whole entry): as the sequence (P31645 whole entry, looked up) above

[3] = molecular target: T2, Sodium-dependent dopamine transporter (Homo sapiens, UniProt Q01959); assay: Binding affinity towards dopamine transporter (DAT) by using [125I]RTI-55 radioligand
T2 sequence (Q01959 whole entry): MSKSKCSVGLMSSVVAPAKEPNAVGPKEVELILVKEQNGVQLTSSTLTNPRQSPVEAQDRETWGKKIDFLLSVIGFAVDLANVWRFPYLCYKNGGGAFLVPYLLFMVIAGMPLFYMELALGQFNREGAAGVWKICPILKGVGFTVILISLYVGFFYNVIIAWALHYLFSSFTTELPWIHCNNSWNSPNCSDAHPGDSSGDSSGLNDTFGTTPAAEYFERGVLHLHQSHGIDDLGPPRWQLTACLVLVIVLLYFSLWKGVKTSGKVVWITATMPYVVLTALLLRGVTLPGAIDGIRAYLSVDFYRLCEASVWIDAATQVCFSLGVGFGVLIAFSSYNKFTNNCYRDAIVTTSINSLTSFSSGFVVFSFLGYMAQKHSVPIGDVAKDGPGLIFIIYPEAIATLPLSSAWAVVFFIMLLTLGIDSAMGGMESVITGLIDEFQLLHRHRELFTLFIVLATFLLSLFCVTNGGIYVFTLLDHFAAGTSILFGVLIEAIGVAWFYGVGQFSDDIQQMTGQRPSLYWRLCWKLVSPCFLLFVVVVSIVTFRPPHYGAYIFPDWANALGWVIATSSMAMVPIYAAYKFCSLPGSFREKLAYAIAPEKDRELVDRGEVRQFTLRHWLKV

[4] = molecular target: Sodium-dependent noradrenaline transporter (Homo sapiens, UniProt P23975); assay: Compound was tested for the inhibition of norepinephrine (NE) reuptake; format: functional
Chain of Sodium-dependent noradrenaline transporter (P23975 whole entry): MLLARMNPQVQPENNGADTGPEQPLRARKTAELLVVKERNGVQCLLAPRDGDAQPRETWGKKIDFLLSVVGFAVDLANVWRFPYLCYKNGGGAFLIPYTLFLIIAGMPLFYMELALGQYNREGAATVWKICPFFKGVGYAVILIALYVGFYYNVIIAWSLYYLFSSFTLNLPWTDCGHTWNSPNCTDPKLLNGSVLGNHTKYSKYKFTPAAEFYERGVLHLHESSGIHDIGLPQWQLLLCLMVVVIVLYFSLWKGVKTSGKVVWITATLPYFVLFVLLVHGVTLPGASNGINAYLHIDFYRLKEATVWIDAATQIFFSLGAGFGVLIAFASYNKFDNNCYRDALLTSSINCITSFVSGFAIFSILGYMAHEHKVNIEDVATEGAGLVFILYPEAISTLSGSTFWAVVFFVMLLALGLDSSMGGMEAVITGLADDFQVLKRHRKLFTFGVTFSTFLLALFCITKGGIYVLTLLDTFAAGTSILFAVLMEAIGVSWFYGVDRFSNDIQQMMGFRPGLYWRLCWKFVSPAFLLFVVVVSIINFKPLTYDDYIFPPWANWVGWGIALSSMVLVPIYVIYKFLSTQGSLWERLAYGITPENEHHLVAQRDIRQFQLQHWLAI

[5] = molecular target: T2, Sodium-dependent dopamine transporter; assay: Compound was tested for the inhibition of dopamine (DA) reuptake; format: functional
[6] = molecular target: T1, Sodium-dependent serotonin transporter; assay: Compound was tested for the inhibition of serotonin (5-HT) reuptake; format: functional
Target sequence in this assay (P31645 whole entry): as the sequence (P31645 whole entry, looked up) above

Fc1ccc(C(OCCC2CCN(CCCc3ccccc3)CC2)c2ccc(F)cc2)cc1
Ratio [1]: 65
Ki [2]: 0.068 µM
Ki [3]: 0.0011 µM

Fc1ccc(C(OCCC2CCN(Cc3ccc4ccccc4c3)CC2)c2ccc(F)cc2)cc1
IC50 [4]: 0.093 µM
Ratio [1]: 323
Ki [2]: 0.229 µM
IC50 [5]: 0.0072 µM
IC50 [6]: 0.277 µM

Fc1ccc(C(OCCC2CCN(Cc3cccc4ccccc34)CC2)c2ccc(F)cc2)cc1
Ratio [1]: 23
Ki [2]: 0.37 µM
Ki [3]: 0.016 µM

Fc1ccc(C(OCCC2CCN(C/C=C/c3ccccc3)CC2)c2ccc(F)cc2)cc1
Ratio [1]: 104
Ki [2]: 0.047 µM
Ki [3]: 0.00045 µM

Fc1ccc(C(OCCC2CCN(C/C=C/c3ccco3)CC2)c2ccc(F)cc2)cc1
Ratio [1]: 41
Ki [2]: 0.041 µM
Ki [3]: 0.00099 µM

Fc1ccc(C(OCCC2CCN(Cc3cc4ccccc4s3)CC2)c2ccc(F)cc2)cc1
IC50 [4]: 0.26 µM
Ratio [1]: 153
Ki [2]: 0.246 µM
IC50 [5]: 0.0119 µM
IC50 [6]: 1.04 µM

Fc1ccc(C(OCCC2CCN(Cc3cc4ccccc4[nH]3)CC2)c2ccc(F)cc2)cc1
Ratio [1]: 121
Ki [2]: 0.088 µM

Fc1ccc(C(OCCC2CCN(CC#Cc3ccccc3)CC2)c2ccc(F)cc2)cc1
Ratio [1]: 31
Ki [2]: 0.164 µM

Fc1ccc(C(OCCC2CCN(Cc3cc4ccccc4o3)CC2)c2ccc(F)cc2)cc1
Ratio [1]: 84
Ki [2]: 0.085 µM

Fc1ccc(C(OCCC2CCN(C/C=C/c3cccs3)CC2)c2ccc(F)cc2)cc1
Ratio [1]: 35
Ki [2]: 0.045 µM
Ki [3]: 0.0013 µM
